Key:
Assay type in all cases: in vivo
Bemisia tabaci = Bemisia tabaci spray test (BEMITA); details: 20 g/ha; 7dat
Procedure: Bemisia Tabaci-Spray Test ([…]) To produce a suitable preparation of active compound, 1 part by weight of active compound is mixed with the stated amount of solvent and emulsifier, and the concentrate is diluted with emulsifier-containing water to the desired concentration. Discs of cotton leaves (Gossypium hirsutum) which are infested by all stages of the whitefly (Bemisia tabaci) are sprayed with an active compound preparation of the desired concentration. After the desired period of time, the activity in % is determined. 100% means that all the whiteflies have been killed; 0% means that none of the whiteflies have been killed.

Boophilus microplus = Boophilus microplus test (BOOPMI injection); details: 20 μg/animal, after 7 days
Procedure: Boophilus Microplus Test (BOOPMI Injection) [table] To prepare an appropriate active compound formulation, 10 mg of active compound are mixed with 0.5 ml of solvent and the concentrate is diluted with solvent to the desired concentration. The solution of active compound is injected into the abdomen (Boophilus microplus), and the animals are transferred into dishes and kept in a climatized room. The activity is assessed by deposition of fertile eggs. After 7 days, the effect in % is determined. 100% means that none of the ticks has laid any fertile eggs.

Myzus persicae = test: Myzus test (MYZUPE spray treatment); details: application rate 500 g/ha, after 5 days, Chinese cabbage leaf discs
Procedure, shortened: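 Chinese cabbage leaf discs carrying all stages of green peach aphid sprayed with compound diluted in emulsifier-containing water to the desired concentration. Mortality scored as % after 5 days, where 100% means all aphids dead and 0% none.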

Lucilia cuprina larvae = test: Lucilia cuprina test (LUCICU); details: 100 ppm, after 2 days
Procedure: Lucilia Cuprina Test (LUCICU) [table] To prepare an appropriate active compound formulation, 10 mg of active compound are mixed with 0.5 ml of dimethyl sulfoxide and the concentrate is diluted with water to the desired concentration. Vessels containing horse meat treated with the active compound preparation of the desired concentration are populated with about 20 Lucilia cuprina larvae. After 2 days, the kill in % is determined. 100% means that all of the larvae have been killed; 0% means that none of the larvae have been killed.

Phaedon cochleariae = test: Phaedon test (PHAECO spray treatment); details: application rate 500 g/ha, after 7 days, Chinese cabbage leaf discs
Procedure: Phaedon Test ([…] Spray Treatment) [table] To produce a suitable preparation of active compound, 1 part by weight of active compound is mixed with the stated amount of solvent and emulsifier, and the concentrate is diluted with emulsifier-containing water to the desired concentration. Discs of Chinese cabbage (Brassica pekinensis) are sprayed with an active compound preparation of the desired concentration and, after drying, populated with larvae of the mustard beetle (Phaedon cochleariae). After 7 days, the effect in % is determined 100% means that all beetle larvae have been killed; 0% means that none of the beetle larvae have been killed. Phaedon Test ([…] Spray Treatment) To produce a suitable preparation of active compound, 1 part by weight of active compound is mixed with the stated amount of solvent and emulsifier, and the concentrate is diluted with emulsifier-containing water to the desired concentration. Discs of Chinese cabbage (Brassica pekinensis) are sprayed with an active compound preparation of the desired concentration and, after drying, populated with larvae of the mustard beetle (Phaedon cochleariae). After the desired period of time, the activity in % is determined. 100% means that all beetle larvae have been killed; 0% means that none of the beetle larvae have been killed.

Tetranychus urticae = test: Tetranychus test (TETRUR spray treatment; OP-resistant in Example 10)
Procedure: Tetranychus Test (TETRUR Spray Treatment)
To produce a suitable preparation of active compound, 1 part by weight of active compound is mixed with the stated amount of solvent and emulsifier, and the concentrate is diluted with emulsifier-containing water to the desired concentration. Discs of bean leaves (Phaseolus vulgaris) which are infested by all stages of the greenhouse red spider mite (Tetranychus urticae) are sprayed with an active compound preparation of the desired concentration.
After 5 days, the effect in % is determined. 100% means that all of the spider mites have been killed; 0% means that none of the spider mites have been killed.
Tetranychus Test, OP-Resistant (TETRUR Spray Treatment)
To produce a suitable preparation of active compound, 1 part by weight of active compound is mixed with the stated amount of solvent and emulsifier, and the concentrate is diluted with emulsifier-containing water to the desired concentration.
Discs of bean leaves (Phaseolus vulgaris) which are infested by all stages of the greenhouse red spider mite (Tetranychus urticae) are sprayed with an active compound preparation of the desired concentration.
After the desired period of time, the activity in % is determined. 100% means that all of the spider mites have been killed; 0% means that none of the spider mites have been killed.

Spodoptera frugiperda = Spodoptera frugiperda test (SPODFR spray treatment)
Procedure: Spodoptera Frugiperda Test (SPODFR Spray Treatment) [table] To produce a suitable preparation of active compound, 1 part by weight of active compound is mixed with the stated amount of solvent and emulsifier, and the concentrate is diluted with emulsifier-containing water to the desired concentration. Discs of corn leaves (Zea mays) are sprayed with an active compound preparation of the desired concentration and, after drying, populated with caterpillars of the armyworm (Spodoptera frugiperda). After 7 days, the effect in % is determined. 100% means that all caterpillars have been killed; 0% means that none of the caterpillars have been killed. Spodoptera Frugiperda Test (SPODFR Spray Treatment) To produce a suitable preparation of active compound, 1 part by weight of active compound is mixed with the stated amount of solvent and emulsifier, and the concentrate is diluted with emulsifier-containing water to the desired concentration. Discs of corn leaves (Zea mays) are sprayed with an active compound preparation of the desired concentration and, after drying, populated with caterpillars of the armyworm (Spodoptera frugiperda). After the desired period of time, the activity in % is determined. 100% means that all caterpillars have been killed; 0% means that none of the caterpillars have been killed.

Liriomyza trifolii = Liriomyza trifolii spray test (LIRITR); details: 20 g/ha; 7dat
Procedure: Liriomyza Trifolii-Spray Test ([…]) To produce a suitable preparation of active compound, 1 part by weight of active compound is mixed with the stated amount of solvent and emulsifier, and the concentrate is diluted with emulsifier-containing water to the desired concentration. If the addition of ammonium salts or/and penetrants is required, these are in each case added in a concentration of 1000 ppm to the solution of the preparations. Discs of bean leaves (Phaseolus vulgaris) which are infested by all stages of the leaf-mining fly (Liriomyza trifolii) are sprayed with an active compound preparation of the desired concentration. After the desired period of time, the activity in % is determined. 100% means that all of the leaf-mining flies have been killed; 0% means that none of the leaf-mining flies have been killed.

How did the “% Activity BEMITA” value (Bemisia tabaci) turn out when CCOC(=O)OC1=C(c2c(C)cc(C)cc2C)C(=O)C2(CCC(COC)CC2)N1 (stereo not shown) [I-b-3] was run?
The value was 72%.

What about the “efficacy in % (deposition of fertile eggs)” value (Boophilus microplus) of the same compound?
Its value is 100%.

And the “effect in % (aphids killed)” value (Myzus persicae)?
The value was 90%.

And the “kill in % (larvae)” value (Lucilia cuprina larvae)?
Its value is 90%.

What about the “effect in % (beetle larvae killed)” value (Phaedon cochleariae) of the same compound?
The value was 100%.

What about the “% Activity TETRUR” value (Tetranychus urticae; 20 g/ha, 5dat, OP-resistant) of the same compound?
Its value is 80%.

What about the “effect in % (spider mites killed)” value (Tetranychus urticae; application rate 100 g/ha, after 5 days, bean leaf discs) of the same compound?
Its value is 90%.

And the “% Activity SPODFR” value (Spodoptera frugiperda; 500 g/ha, 7dat)?
The value was 100%.

What about the “effect in % (caterpillars killed)” value (Spodoptera frugiperda; application rate 500 g/ha, after 7 days, corn leaf discs) of the same compound?
Its value is 100%.

What about the “% Activity LIRITRI” value (Liriomyza trifolii) of the same compound?
Its value is 80%.

Reference: patent US9204640B2, “2-acyloxy-pyrrolin-4-ones” (BAYER INTELLECTUAL PROPERTY GMBH, priority 2011, dated 2015)
